According to US8859608B2, “Spiro amino compounds suitable for the treatment of inter alia sleep disorders and drug addiction” (Rottapharm Biotech S.R.L., priority 2009, dated 2014):
Like-named read-outs stand apart in the source and are kept apart here.

What was measured:
human OX2 receptor = target: T1, human OX2 receptor (Homo sapiens, UniProt O43614); test: FLIPR measurement of intracellular calcium, antagonistic activity at OX2
T1 sequence (O43614 1-444): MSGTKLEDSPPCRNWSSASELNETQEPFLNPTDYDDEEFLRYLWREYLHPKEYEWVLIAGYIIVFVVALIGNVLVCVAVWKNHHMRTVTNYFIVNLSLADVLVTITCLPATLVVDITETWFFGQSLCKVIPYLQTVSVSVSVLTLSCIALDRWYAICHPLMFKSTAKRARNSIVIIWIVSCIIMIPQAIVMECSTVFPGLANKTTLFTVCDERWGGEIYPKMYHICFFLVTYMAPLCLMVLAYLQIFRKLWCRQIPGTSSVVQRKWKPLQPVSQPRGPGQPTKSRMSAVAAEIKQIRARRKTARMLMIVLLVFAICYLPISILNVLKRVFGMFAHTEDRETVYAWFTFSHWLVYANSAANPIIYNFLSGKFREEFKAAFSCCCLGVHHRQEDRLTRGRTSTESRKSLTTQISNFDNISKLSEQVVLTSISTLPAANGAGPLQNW
Procedure: (§2) Thus the plate was loaded with the calcium dye (Fluo-4NW/probenecid in HBSS, Hepes 20 mM, pH 7,4; Invitrogen) at 37° C. for 60 min. Afterward the temperature was equilibrated at 22° C. for 15 min and the [Ca2+]i measured directly on the plate by using a fluorescent plate reader (CeliLux Perkin Elmer).
(§3) After 5 min CHO cells were activated with orexin-A, 3 nM while HEK-293 cells were activated with orexin-B, 10 nM.
(§4) The antagonistic activity has been expressed as pKb (co-logarithm of the apparent dissociation constant calculated by using the modified Cheng Prusoff equation).

human OX1 receptor = target: T2, human OX1 receptor (Homo sapiens, UniProt O43613); test: FLIPR measurement of intracellular calcium, antagonistic activity at OX1; conditions: for Kb: pKb OX1, CHO cells with human recombinant OX1, activated with orexin-A 3 nM, 1 nM-1 μM range, modified Cheng Prusoff; for selectivity against the OX1 receptor: OX1 versus OX2, from the pKb table
T2 sequence (O43613 1-425): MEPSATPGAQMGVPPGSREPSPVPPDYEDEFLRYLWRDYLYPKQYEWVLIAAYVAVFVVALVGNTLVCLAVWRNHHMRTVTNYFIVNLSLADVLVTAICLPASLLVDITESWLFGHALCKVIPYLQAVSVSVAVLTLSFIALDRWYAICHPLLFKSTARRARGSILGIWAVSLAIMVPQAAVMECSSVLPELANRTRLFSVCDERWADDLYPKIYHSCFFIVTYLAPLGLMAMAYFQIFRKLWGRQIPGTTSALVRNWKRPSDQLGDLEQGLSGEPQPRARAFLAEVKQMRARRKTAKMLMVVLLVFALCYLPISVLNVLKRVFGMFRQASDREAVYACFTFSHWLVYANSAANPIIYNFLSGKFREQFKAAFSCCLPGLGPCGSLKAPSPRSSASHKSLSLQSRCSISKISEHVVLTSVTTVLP
Procedure: as §2, §3, §4

[1] = Pharmacokinetics in male Han Wistar rats, intravenous and oral; assay type: in vivo; conditions: 1 mg/kg
Procedure: (§1) The pharmacokinetics of compound 4 were studied in male Han Wistar rats. The rats were treated intravenously and orally (n=3 for each dose route) with a compound 2 solution at the dose of 1 mg/kg, formulated in Lactic acid 150 mM pH 4.5 in water, 5% DMSO, 10% TWEEN 80. The rats were fitted with a jugular cannula for serial sampling, a full profile was acquired for each rat. Another group of rats (n=3) was treated intravenously and sacrificed after 1 hour harvesting arterial blood and brain to assess brain penetration. Plasma and brain extracts were quantitatively analyzed using a specific and sensitive LC-MS/MS bioanalytical method. Inter-individual variations between the three rats in each group were limited (CV for pharmacokinetic parameters was below 30%).

[2] = Brain penetration in rats 1 hour after intravenous treatment; assay type: in vivo; conditions: male, Han Wistar, rat, one hour after intravenous administration, 1 mg/kg
Procedure: as §1

[3] = male, Han Wistar, plasma, rat, intravenous

Row | SMILES | Kb (human OX2 receptor) [µM] | Kb (human OX1 receptor) [µM] | further results
1 | Cc1nc(C(=O)N2CCC3(CC3)CC2CNc2ccc(C(F)(F)F)cn2)c(-c2ccccc2)s1 (single isomer, unassigned) [Compound 8, (2-methyl-5-phenylthiazol-4-yl)(5-((5-(trifluoromethyl)pyridin-2-ylamino)methyl)-6-azaspiro[2.5]octan-6-yl)methanone] | > 10 | 0.02 | selectivity against the OX1 receptor (human OX1 receptor): same behaviour
2 | Cc1cccc(NCC2CC3(CCN2C(=O)c2nc(C)sc2-c2ccccc2)CC3)n1 (single isomer, unassigned) [Compound 2, (2-methyl-5-phenylthiazol-4-yl)(5-((6-methylpyridin-2-ylamino)methyl)-6-azaspiro[2.5]octan-6-yl)methanone] | > 10 | 0.00631 | clearance as share of rat liver blood flow ([1]; intravenous): 40%; AUC [1, 3]: ~0.74 µg·h/mL; clearance [1, 3]: ~5.33 mL/min; Vd ([1]; male, Han Wistar, plasma, rat, intravenous, read-out: average volume of distribution (Vss)): 0.33 L; bioavailability ([1]; male, Han Wistar, plasma, rat, oral solution, read-out: absolute oral bioavailability): 50%; AUC ([1]; male, Han Wistar, plasma, rat, oral): ~0.36 µg·h/mL; oral AUC as share of AUC after intravenous administration ([1]; rat): about 50%; time of maximum concentration ([1]; rat, oral): ≤ 30 min; selectivity against the OX1 receptor (human OX1 receptor): highly selective; concentration at 1 h ([2]; arterial plasma, read-out: average arterial plasmatic level): 0.126 µg/mL; Kp at 1 h ([2]; brain/plasma, read-out: Brain/plasma concentrations ratio): 0.66; concentration at 1 h ([2]; brain, read-out: average total brain level): 83 ng/g
3 | Cc1cc(C)nc(NC[C@@H]2CC3(CCN2C(=O)c2ccccc2-c2ccccc2)CC3)n1 [Compound 35, (S)-[1,1′-biphenyl]-2-yl(5-(((4,6-dimethylpyrimidin-2-yl)amino)methyl)-6-azaspiro[2.5]octan-6-yl)methanone] | 0.0794 | 0.00501 | 
4 | Cc1cccc(NCC2CC3(CCN2C(=O)c2nc(C)sc2-c2ccccc2)CC3)n1 (racemic) [Compound 1, (±) (2-methyl-5-phenylthiazol-4-yl)(5-((6-methylpyridin-2-ylamino)methyl)-6-azaspiro[2.5]octan-6-yl)methanone] | > 10 |  | selectivity against the OX1 receptor (human OX1 receptor): same behaviour
5 | Cc1nc(C(=O)N2CCC3(CC3)C[C@H]2CNc2cccc(Cl)n2)c(-c2ccccc2)s1 [Compound 17, (S)-(5-(((6-chloropyridin-2-yl)amino)methyl)-6-azaspiro[2.5]octan-6-yl)(2-methyl-5-phenylthiazol-4-yl)methanone] | > 10 | 0.0316 | 
6 | Cc1nc(C(=O)N2CCC3(CC3)CC2CNc2ccc(C(F)(F)F)cn2)c(-c2ccccc2)s1 (racemic) [Compound 7, (±) (2-methyl-5-phenylthiazol-4-yl)(5-((5-(trifluoromethyl)pyridin-2-ylamino)methyl)-6-azaspiro[2.5]octan-6-yl)methanone] | > 10 | 0.0251 | selectivity against the OX1 receptor (human OX1 receptor): same behaviour
7 | Cc1nc(C(=O)N2CCC3(CC3)CC2CNc2ccc(Cl)cn2)c(-c2ccccc2)s1 (single isomer, unassigned) [Compound 5, (5-((5-chloropyridin-2-ylamino)methyl)-6-azaspiro[2.5]octan-6-yl)(2-methyl-5-phenylthiazol-4-yl)methanone] | > 1 | 0.0126 | 
8 | COC(=O)c1cc(Cl)ccc1NCC1CC2(CCN1C(=O)c1nc(C)sc1-c1ccc(F)cc1)CC2 (racemic) [Compound 15, (±)methyl 5-chloro-2-((6-(5-(4-fluorophenyl)-2-methylthiazole-4-carbonyl)-6-azaspiro[2.5]octan-5-yl)methylamino)benzoate] | > 10 | 0.126 | 
9 | Cc1cc(C)nc(NC[C@@H]2CC3(CCN2C(=O)c2nc(C)sc2-c2ccccc2)CC3)n1 [Compound 22, (S)-(5-(((4,6-dimethylpyrimidin-2-yl)amino)methyl)-6-azaspiro[2.5]octan-6-yl)(2-methyl-5-phenylthiazol-4-yl)methanone] | > 10 | 0.02 | 
10 | Cc1cc(C)nc(NC[C@@H]2CC3(CCN2C(=O)c2cc(Cl)ccc2Cl)CC3)n1 [Compound 37, (S)-(2,5-dichlorophenyl)(5-(((4,6-dimethylpyrimidin-2-yl)amino)methyl)-6-azaspiro[2.5]octan-6-yl)methanone] | > 10 |  | 
11 | O=C(c1ccccc1OCC1CC1)N1CCC2(CC2)CC1CNc1ccc(Cl)cn1 (racemic) [Compound 9, (±) (5-((5-chloropyridin-2-ylamino)methyl)-6-azaspiro[2.5]octan-6-yl)(2-(cyclopropylmethoxy)phenyl)methanone] | > 10 | 0.1 | 
12 | Cc1nc(C(=O)N2CCC3(CC3)C[C@H]2CNc2cccc(C(F)(F)F)n2)c(-c2ccccc2)s1 [Compound 18, (S)-(2-methyl-5-phenylthiazol-4-yl)(5-(((6-(trifluoromethyl)pyridin-2-yl)amino)methyl)-6-azaspiro[2.5]octan-6-yl)methanone] | > 10 | 0.0501 | 

Further lines, with some results ahead:

Row | Kb (human OX2 receptor) [µM] | Kb (human OX1 receptor) [µM] | SMILES | further results
13 | > 10 | 0.0794 | Cc1ccc(-n2nccn2)c(C(=O)N2CC3(CC3)C[C@H]2CNc2cccc(C)n2)c1 [Compound 50, (S)-(5-methyl-2-(2H-1,2,3-triazol-2-yl)phenyl)(6-(((6-methylpyridin-2-yl)amino)methyl)-5-azaspiro[2.4]heptan-5-yl)methanone] | 
14 | > 10 | 0.00631 | Cc1ccc(-c2ncccn2)c(C(=O)N2CC3(CC3)C[C@H]2CNc2ccc(Cl)cn2)c1 [Compound 51, (S)-(6-(((5-chloropyridin-2-yl)amino)methyl)-5-azaspiro[2.4]heptan-5-yl)(5-methyl-2-(pyrimidin-2-yl)phenyl)methanone] | 
15 | > 10 | 0.0126 | Cc1ccnc(NC[C@@H]2CC3(CCN2C(=O)c2ccccc2-c2ccccc2)CC3)n1 [Compound 39, (S)-[1,1′-biphenyl]-2-yl(5-(((4-methylpyrimidin-2-yl)amino)methyl)-6-azaspiro[2.5]octan-6-yl)methanone] | 
16 | 0.0251 | 0.01 | Cc1nc(C(=O)N2CCCCC2CNc2ccc(Cl)cn2)c(-c2ccccc2)s1 (stereo not shown) [comparison 2, reference compound] | 
17 | 0.00398 | 0.00316 | Cc1cccc(NCC2CCCCN2C(=O)c2nc(C)sc2-c2ccc(F)cc2)n1 (stereo not shown) [comparison 5, reference compound] | 
18 | 0.0316 | 0.126 | Cc1cccc(NCC2CCCCN2C(=O)c2ccccc2-c2ccccc2)n1 (stereo not shown) [comparison 1, reference compound] | 
19 | 0.158 | 0.00316 | O=C(c1ccccc1OCC1CC1)N1CCCCC1CNc1ccc(Cl)cn1 (stereo not shown) [comparison 4, reference compound] | 
20 | > 10 | 0.00794 | Cc1ccc(-n2nccn2)c(C(=O)N2CC3(CC3)C[C@H]2CNc2ccc(Cl)cn2)c1 [Compound 49, (S)-(6-(((5-chloropyridin-2-yl)amino)methyl)-5-azaspiro[2.4]heptan-5-yl)(5-methyl-2-(2H-1,2,3-triazol-2-yl)phenyl)methanone] | 
21 | 0.00316 | 0.001 | Cc1cccc(NCC2CCCCN2C(=O)c2nc(C)sc2-c2ccccc2)n1 (stereo not shown) [comparison 3, reference compound] | 
